Data taken from PubChem BioAssay AID330 (DTP/NCI, 2004).
Values joined by “and” are separate entries in the source; they are usually repeats but may differ in a detail not shown here. Identical values can stand only once. Toxic doses and inconclusive results are not listed.

Tested on: P388 leukemia ip, CD2F1 mice, survival T/C
Test: NCI In Vivo Anticancer Drug Screen. Data for tumor model P388 Leukemia (intraperitoneal) in CD2F1 (CDF1) mice
Settings: endpoint: median survival time, higher = longer survival
Method in brief: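 Mice carrying the transplanted tumor received test compound or vehicle. Survival was recorded in each group, and the value is the treated-group measurement divided by that of the vehicle-treated control group.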

[1] = dose: 100.0 mg/kg/injection, schedule: Q04DX003 (ip), vehicle: Klucel (hydroxypropylcellulose) (HPC)
[2] = dose: 200.0 mg/kg/injection, schedule: Q04DX003 (ip), vehicle: Klucel (hydroxypropylcellulose) (HPC)
[3] = dose: 50.0 mg/kg/injection, schedule: Q01DX005 (ip), vehicle: saline with Tween-80
[4] = dose: 100.0 mg/kg/injection, schedule: Q01DX005 (ip), vehicle: saline with Tween-80
[5] = dose: 200.0 mg/kg/injection, schedule: Q01DX005 (ip), vehicle: saline with Tween-80
[6] = dose: 50.0 mg/kg/injection, schedule: Q01DX005 (ip), vehicle: saline
[7] = dose: 100.0 mg/kg/injection, schedule: Q01DX005 (ip), vehicle: saline
[8] = dose: 200.0 mg/kg/injection, schedule: Q01DX005 (ip), vehicle: saline
[9] = dose: 100.0 mg/kg/injection, schedule: Q04DX003 (ip), vehicle: saline with Tween-80
[10] = dose: 50.0 mg/kg/injection, schedule: Q01DX009 (ip), vehicle: saline with Tween-80
[11] = dose: 100.0 mg/kg/injection, schedule: Q01DX009 (ip), vehicle: saline with Tween-80
[12] = dose: 200.0 mg/kg/injection, schedule: Q01DX009 (ip), vehicle: saline with Tween-80
[13] = dose: 60.0 mg/kg/injection, schedule: Q01DX005 (ip), vehicle: saline with Tween-80
[14] = dose: 120.0 mg/kg/injection, schedule: Q01DX005 (ip), vehicle: saline with Tween-80
[15] = dose: 240.0 mg/kg/injection, schedule: Q01DX005 (ip), vehicle: saline with Tween-80
[16] = dose: 50.0 mg/kg/injection, schedule: Q01DX005 (ip), vehicle: Klucel (hydroxypropylcellulose) (HPC)
[17] = dose: 100.0 mg/kg/injection, schedule: Q01DX005 (ip), vehicle: Klucel (hydroxypropylcellulose) (HPC)
[18] = dose: 200.0 mg/kg/injection, schedule: Q01DX005 (ip), vehicle: Klucel (hydroxypropylcellulose) (HPC)
[19] = dose: 200.0 mg/kg/injection, schedule: Q04DX003 (ip), vehicle: saline with Tween-80

With `O=S(=O)(N1CCCCC1)n1nnc2cc3ccccc3cc21` the T/C (dose: 50.0 mg/kg/injection, schedule: Q01DX009 (ip), vehicle: acetone) was 98 % of control, the T/C (dose: 100.0 mg/kg/injection, schedule: Q01DX009 (ip), vehicle: acetone) was 97 % of control and the T/C (dose: 200.0 mg/kg/injection, schedule: Q01DX009 (ip), vehicle: acetone) was 97 % of control.

`CN(C)c1nc(-c2ccccc2)cc(=O)[nH]1` was tested, and the T/C (dose: 15.0 mg/kg/injection, schedule: Q01DX009 (ip), vehicle: saline with Tween-80) was 102 % of control, the T/C (dose: 30.0 mg/kg/injection, schedule: Q01DX009 (ip), vehicle: saline with Tween-80) was 108 % of control and the T/C (dose: 50.0 mg/kg/injection, schedule: Q04DX003 (ip), vehicle: Klucel (hydroxypropylcellulose) (HPC)) was 98 % of control. The T/C (dose: 60.0 mg/kg/injection, schedule: Q01DX009 (ip), vehicle: saline with Tween-80) was 100 % of control, the T/C [1] was 94 % of control and the T/C [2] was 94 % of control. For the same compound, the T/C (dose: 400.0 mg/kg/injection, schedule: Q04DX003 (ip), vehicle: Klucel (hydroxypropylcellulose) (HPC)) was 92 % of control.

With `Nc1nc2ccccc2n1/N=C/c1ccccc1[N+](=O)[O-]` the T/C (dose: 100.0 mg/kg/injection, schedule: Q01DX001 (ip), vehicle: Klucel (hydroxypropylcellulose) (HPC)) was 90 % of control, the T/C (dose: 200.0 mg/kg/injection, schedule: Q01DX001 (ip), vehicle: Klucel (hydroxypropylcellulose) (HPC)) was 100 % of control and the T/C (dose: 400.0 mg/kg/injection, schedule: Q01DX001 (ip), vehicle: Klucel (hydroxypropylcellulose) (HPC)) was 98 % of control.

With `CC(=O)/C(N=Nc1ccc(F)cc1F)=C(\C)O` the T/C [3] was 103 % of control, the T/C [4] was 103 % of control and the T/C [5] was 107 % of control.

With `COc1ccccc1N=Nc1cccc[c]1[Hg][Cl]` the T/C (dose: 9.0 mg/kg/injection, schedule: Q01DX009 (ip), vehicle: saline) was 107 % of control and 113 % of control and 118 % of control, the T/C (dose: 18.0 mg/kg/injection, schedule: Q01DX009 (ip), vehicle: saline) was 114 % of control and 119 % of control and the T/C (dose: 36.0 mg/kg/injection, schedule: Q01DX009 (ip), vehicle: saline) was 102 % of control and 113 % of control.

`C=C(CC1(O)C(C2COC(C)(C)O2)OC2OC(C)(C)OC21)C(=O)OCC` (centres undefined) was tested, and the T/C [6] was 96 % of control, the T/C [7] was 98 % of control and the T/C [8] was 105 % of control.

For `CN(C)[C@@H]1C(=O)C(C(=O)NCN(CCCl)CCCl)=C(O)[C@@]2(O)C(=O)C3=C(O)c4c(O)cccc4[C@@](C)(O)[C@H]3C[C@@H]12`, the T/C (dose: 33.0 mg/kg/injection, schedule: Q04DX003 (ip), vehicle: saline with Tween-80) was 159 % of control, the T/C (dose: 44.0 mg/kg/injection, schedule: Q04DX003 (ip), vehicle: saline) was 154 % of control and the T/C (dose: 50.0 mg/kg/injection, schedule: Q04DX003 (ip), vehicle: saline with Tween-80) was 158 % of control and 172 % of control. For the same compound, the T/C (dose: 66.0 mg/kg/injection, schedule: Q04DX003 (ip), vehicle: saline) was 181 % of control, the T/C (dose: 75.0 mg/kg/injection, schedule: Q04DX003 (ip), vehicle: saline with Tween-80) was 168 % of control and the T/C [9] was 100 % of control. For the same compound, the T/C (dose: 100.0 mg/kg/injection, schedule: Q04DX003 (ip), vehicle: saline) was 209 % of control.

In the case of `N#CC(C(=O)C(=O)Nc1cccc(Cl)c1)c1ccccc1` (centres undefined), the T/C [3] is reported as 109 % of control, the T/C [4] is reported as 104 % of control and the T/C [5] is reported as 99 % of control.

In the case of `O=[N+]([O-])c1ccc2c(Cl)c3ccccc3nc2c1`, the T/C [10] is reported as 95 % of control, the T/C [11] is reported as 103 % of control and the T/C [12] is reported as 94 % of control.

For `CC1CC(=O)Nc2nc(N)ncc21` (centres undefined), the T/C [13] was 102 % of control, the T/C [14] was 106 % of control and the T/C [15] was 108 % of control.

In the case of `Oc1cncc2ncccc12`, the T/C (dose: 50.0 mg/kg/injection, schedule: Q01DX009 (ip), vehicle: saline) is reported as 106 % of control, the T/C (dose: 100.0 mg/kg/injection, schedule: Q01DX009 (ip), vehicle: saline) is reported as 100 % of control and the T/C (dose: 200.0 mg/kg/injection, schedule: Q01DX009 (ip), vehicle: saline) is reported as 100 % of control.

In the case of `CCC(C(=O)N(C)C)n1nc(Br)c(Br)c1C` (centres undefined), the T/C [1] is reported as 97 % of control and the T/C [2] is reported as 95 % of control.

`CCC(C)C(NC(=O)OCC1c2ccccc2-c2ccccc21)C(=O)O` (centres undefined) was tested, and the T/C [16] was 100 % of control, the T/C [17] was 100 % of control and the T/C [18] was 104 % of control.

For `C#CCC(B1OCCO1)B1OCCO1`, the T/C (dose: 25.0 mg/kg/injection, schedule: Q01DX001 (ip), vehicle: saline) was 100 % of control and the T/C (dose: 50.0 mg/kg/injection, schedule: Q01DX001 (ip), vehicle: saline) was 90 % of control.

With `CCCCOCN(COCCCC)C(C)Cc1ccccc1` (centres undefined) the T/C (dose: 25.0 mg/kg/injection, schedule: Q01DX009 (ip), vehicle: saline with Tween-80) was 120 % of control.

With `CS(=O)(=O)/C=C/COC(=O)/C=C/c1ccccc1` the T/C (dose: 25.0 mg/kg/injection, schedule: Q01DX005 (ip), vehicle: Klucel (hydroxypropylcellulose) (HPC)) was 102 % of control, the T/C [16] was 102 % of control and the T/C [17] was 100 % of control. The T/C [18] was 102 % of control.

For `O=C(O)C(CSC(c1ccccc1)(c1ccccc1)c1ccccc1)N=Cc1ccccc1O` (centres undefined), the T/C [9] was 168 % of control, the T/C (dose: 150.0 mg/kg/injection, schedule: Q04DX003 (ip), vehicle: saline with Tween-80) was 190 % of control and the T/C [19] was 122 % of control.

With `CCC#CCC1(CC#CCC)CC1C` (centres undefined) the T/C [3] was 100 % of control, the T/C [4] was 99 % of control and the T/C [5] was 107 % of control.

`Cc1cc2c(cc1C)C(O)(C#Cc1ccccc1)c1c(C)ccc(C)c1C2=O` (centres undefined) was tested, and the T/C [9] was 100 % of control, the T/C [19] was 100 % of control and the T/C (dose: 400.0 mg/kg/injection, schedule: Q04DX003 (ip), vehicle: saline with Tween-80) was 97 % of control.

`CC1=NC(C)(Cc2ccccc2)SC1c1ccccc1` (centres undefined) was tested, and the T/C [3] was 110 % of control, the T/C [6] was 100 % of control and the T/C [4] was 96 % of control. The T/C [7] was 106 % of control and the T/C [8] was 101 % of control.

In the case of `Cc1c2cnccc2c(C)c2c1c1ccccc1n2CCCCCCCCCCn1c2ccccc2c2c(C)c3cnccc3c(C)c21`, the T/C (dose: 25.0 mg/kg/injection, schedule: Q04DX002 (ip), vehicle: saline with Tween-80) is reported as 98 % of control, the T/C (dose: 50.0 mg/kg/injection, schedule: Q04DX002 (ip), vehicle: saline with Tween-80) is reported as 92 % of control and the T/C (dose: 100.0 mg/kg/injection, schedule: Q04DX002 (ip), vehicle: saline with Tween-80) is reported as 89 % of control.

`O=S(=O)(NCCSSCCNS(=O)(=O)c1ccc2ccccc2c1)c1ccc2ccccc2c1` was tested, and the T/C (dose: 50.0 mg/kg/injection, schedule: Q01DX009 (ip), vehicle: Klucel (hydroxypropylcellulose) (HPC)) was 91 % of control, the T/C (dose: 100.0 mg/kg/injection, schedule: Q01DX009 (ip), vehicle: Klucel (hydroxypropylcellulose) (HPC)) was 92 % of control and the T/C (dose: 200.0 mg/kg/injection, schedule: Q01DX009 (ip), vehicle: Klucel (hydroxypropylcellulose) (HPC)) was 88 % of control.

`O=C(C(=O)c1ccc(C(=O)C(=O)c2ccccc2)cc1)c1ccccc1` was tested, and the T/C [13] was 104 % of control, the T/C [14] was 93 % of control and the T/C [15] was 96 % of control.

With `CCCCC/C=N/N(C)C=O` the T/C (dose: 100.0 mg/kg/injection, schedule: Q04DX002 (ip), vehicle: saline) was 103 % of control, the T/C (dose: 200.0 mg/kg/injection, schedule: Q04DX002 (ip), vehicle: saline) was 103 % of control and the T/C (dose: 400.0 mg/kg/injection, schedule: Q04DX002 (ip), vehicle: saline) was 100 % of control.

For `CCCCCCCN(CCCCCCC)CCCC(O)c1cccc2ccccc12` (centres undefined), the T/C (dose: 12.5 mg/kg/injection, schedule: Q01DX005 (ip), vehicle: saline with Tween-80) was 104 % of control, the T/C (dose: 25.0 mg/kg/injection, schedule: Q01DX005 (ip), vehicle: saline with Tween-80) was 107 % of control and the T/C [3] was 103 % of control. For the same compound, the T/C [4] was 107 % of control.

In the case of `C(=N/NC1=NCCN1)/c1ccnc2ccccc12`, the T/C (dose: 15.0 mg/kg/injection, schedule: Q01DX005 (ip), vehicle: saline) is reported as 100 % of control, the T/C (dose: 30.0 mg/kg/injection, schedule: Q01DX005 (ip), vehicle: saline) is reported as 98 % of control and the T/C (dose: 60.0 mg/kg/injection, schedule: Q01DX005 (ip), vehicle: saline) is reported as 101 % of control and 92 % of control.

For `S=C1NC2(CCCCCC2)NN1c1ccccc1`, the T/C [10] was 97 % of control, the T/C [11] was 94 % of control and the T/C [12] was 91 % of control.
